The numbers were not newly measured in US10328067B2, “Pharmaceutical oral dose formulation and composition of matter” (priority 2016, dated 2019), which cites them from elsewhere.

For the series the following is noted: result in words; p-glycoprotein substrate.

SMILES strings stand for the structures.

Regarding `CC[C@]1(O)C[C@@H]2CN(CCc3c([nH]c4ccccc34)[C@@](C(=O)OC)(c3cc4c(cc3OC)N(C)[C@H]3[C@@](O)(C(=O)OC)[C@H](OC(C)=O)[C@]5(CC)C=CCN6CC[C@]43[C@@H]65)C2)C1` [vinblastine], the intestinal absorption result is on record as “negligible intestinal absorption”.
